Source: US10155751B2, “Pyrazolyl-substituted heteroaryls and their use as medicaments” (Boehringer Ingelheim International GmbH, priority 2015, dated 2018)
Where two headings read alike, the source gives them in different places.

How the values were obtained:
human hepatocytes = test: Human hepatocyte stability test; type: in vitro ADME; settings: human hepatocyte suspension, percent of hepatic blood flow
Experimental: A more comprehensive way to measure the metabolic stability of a compound of the instant invention than microsomal stability (section 5.6) is the human hepatocyte stability test as described below. Herein the metabolic degradation for the compound in question is performed in a human hepatocyte suspension.
Human hepatocytes (typically cryopreserved) are incubated in an appropriate buffer system (e.g. Dulbecco's modified eagle medium plus 3.5 μg glucagon/500 mL, 2.5 mg insulin/500 mL and 3.75 mg/500 mL hydrocortison) containing 5% species serum.
Following a (typically) 30 min preincubation in an incubator (37° C., 10% CO2) 5 μl of the solution of the compound to be tested ([…]; from 2 mM in DMSO stock solution diluted 1:25 with medium) are added into 395 μl hepatocyte suspension (cell density is in the range of 0.25-5 Mio cells/mL, typically 1 Mio cells/mL; the final concentration of the compound in question is […], the final DMSO concentration is 0.05%).
The cells are incubated for six hours (incubator, orbital shaker) and samples (25 μl) are taken at 0, 0.5, 1, 2, 4 and 6 hours. Samples are transferred into acetonitrile and pelleted by centrifugation (5 min). The supernatant is transferred to a new 96-deepwell plate, evaporated under nitrogen and resuspended.
The decline of the compound to be tested is analyzed by HPLC-MS/MS.
CLint is calculated as follows CL_INTRINSIC=Dose/AUC=(C0/CD)/(AUD+clast/k)×1000/60.
C0: initial concentration in the incubation [μM], CD: cell density of vital cells [10^6 cells/mL], AUD: area under the data [μM×h], clast: concentration of last data point [μM], k: slope of the regression line for the compound in question decline [h−1].
The calculated in vitro hepatic intrinsic clearance can be scaled up to the intrinsic in vivo hepatic Clearance and used to predict hepatic in vivo blood clearance (CL) by the use of a liver model (well stirred model). CL_INTRINSIC_INVIVO [ml/min/kg]=(CL_INTRINSIC [μL/min/10^6cells]×hepatocellularity[10^6 cells/g liver]×liver factor [g/kg bodyweight])/1000 CL [ml/min/kg]=CL_INTRINSIC_INVIVO [ml/min/kg]×hepatic blood flow [ml/min/kg]/(CL_INTRINSIC_INVIVO [ml/min/kg]+hepatic blood flow [ml/min/kg]) Qh[%]=CL [ml/min/kg]/hepatic blood flow [ml/min/kg]) […]
Hepatocellularity, human: 120×10^6 cells/g liver
Liver factor, human: 25.7 g/kg bodyweight
Blood flow, human: 21 ml/(min×kg)
A satisfying human hepatocyte stability for a compound in question measured by this assay is represented by a Qh<20% (whereby the stability is better, the lower the Qh-value is).

[1] = target: Recombinant human Aurora B (amino acids 1-344) (Homo sapiens (Human), UniProt Q96GD4); test: Aurora B kinase test (ADP Glo); type: biochemical
Experimental: The activity of the Aurora B kinase protein was determined using the ADP Glo® Luminescence Kinase test (Promega; V9103X). In this homogeneous test the amount of ADP remaining after the kinase reaction is quantified by a luciferin-luciferase reaction using luminescence. The luminescence signal obtained correlates with the amount of ADP still present and thus correlates with the activity of the protein kinase.
The test compounds were dissolved in 100% DMSO at a concentration of 10 mM and diluted in DMSO to a concentration of 5 mM. Serial Dilution is done in 1:10 steps in 100% DMSO. All further dilutions of the substances were carried out with test buffer (50 mM Hepes, pH 7.5, 10 mM MgCl2, 1 mM EGTA, 60 μM Ultra Pure ATP, 0.01% Brij35, 0.1% BSA, 5 mM 8-Glycerophosphate) until a concentration was reached which was 2.5 times above the final test concentration (final concentration of the compounds: 50 μM to 0.005 nM). 4 μl aliquots of these dilutions were transferred into a 384-well Optiplate (Perkin Elmer, #6007290). His-Aurora B was diluted to 125 nM in the test buffer and 4 μl of this dilution were used in the kinase test (final concentration of Aurora B=50 nM in a total volume of 10 μl). After 15 minutes incubation at room temperature 2 μl of 250 μM substrate ([[…]]; University of Dundee) in test buffer were added to each well and the incubation was continued for a further 60 minutes at room temperature.
Positive controls are the reaction mixtures that contain no test substance; negative controls (blanks) are reaction mixtures that contain no kinase.
After 60 minutes, 10 μl ADP-Glo® solution (ADP-Glo Reagent #V912B Promega) (heated to room temperature) were added to each well and incubation was continued for a further 40. minutes. Then 20 μl Kinase detection mix (Detection Buffer #V913B Promega; Kinase Detection Substrate #V914B Promega) were added and incubated for 40 minutes at room temperature. The plates were read in Envision Luminescence Reader (Perkin-Elmer).
The output file of the reader is a csv file that contains the well number and measured RLU. For data evaluation and calculation, the measurement of the negative control was set as 0% ctrl and the measurement of the positive control was set as 100% ctrl. Based on this values the % value for the measurement of each substance concentration can be calculated using an Assay Explorer software (e.g. Accelrys). Normally, the % ctrl values calculated are between 0% and 100% values but may also occur outside these limits in individual cases based on variability or compound characteristics. The IC50-values were calculated from the % ctrl values using Assay Explorer software. Calculation: [y=(a−d)/(1+(x/c)^b)+d], a=low value, d=high value; x=conc M; c=IC50 M; b=hill; y=% ctrl.

[2] = read-out: AURB inhibition IC50-value (chapter 5.3)

Chain of Recombinant human Aurora B (amino acids 1-344) (Q96GD4 whole entry, the tested form may be a part): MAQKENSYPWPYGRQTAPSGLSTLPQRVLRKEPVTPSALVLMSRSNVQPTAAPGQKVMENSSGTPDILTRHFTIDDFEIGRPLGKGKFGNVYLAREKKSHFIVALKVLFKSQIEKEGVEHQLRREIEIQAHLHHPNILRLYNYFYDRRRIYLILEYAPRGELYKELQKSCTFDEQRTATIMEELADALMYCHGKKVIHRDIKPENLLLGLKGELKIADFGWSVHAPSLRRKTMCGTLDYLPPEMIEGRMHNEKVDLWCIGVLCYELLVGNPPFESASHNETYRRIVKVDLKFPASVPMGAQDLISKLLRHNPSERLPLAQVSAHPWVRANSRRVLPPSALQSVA

| SMILES | stability in human hepatocytes (chapter 5.7) HEPhu (human hepatocytes) [% Qh] | selectivity ratio IC50(AURB)/IC50(SYK) [1] | IC50 [1, 2] [µM] | IC50 ([1]; read-out: IC50(AURB)) [µM] |
| --- | --- | --- | --- | --- |
| C[C@@H](Oc1cc(-c2cnn(C3CC3)c2)cc2nn(C)c(F)c12)[C@H]1CNC(=O)C1 [Example 5, (R)-4-{(R)-1-[6-(1-Cycloprop-yl-1H-pyrazol-4-yl)-3-fluoro-2-methyl-2H-indazol-4-yloxy]-ethyl}-pyrrolidin-2-one] | <4 | 15152 | 50 | – |
| C[C@@H](Oc1cc(-c2cnn(C3CCC(F)(F)C3)c2)cc2nn(C)c(F)c12)[C@H]1CNC(=O)C1 (some centres unmarked) [Example 7] | <4 | 20154 | 26.2 | – |
| Cc1c2c(O[C@H](C)[C@H]3CNC(=O)C3)cc(-c3cnn(C4CCC4)c3)cc2nn1C [Example 21, (R)-4-{(R)-1-[6-(1-Cyclobutyl-1H-pyrazol-4-yl)-2,3-dimethyl-2H-indazol-4-yloxy]-ethyl}-pyrrolidin-2-one] | 7 | 14442 | 17.3 | – |
| Cc1c2c(O[C@H](C)[C@H]3CNC(=O)C3)cc(-c3cnn([C@H]4CO[C@@H]5CCCO[C@@H]54)c3)cc2nn1C [Example 10, 4-(1-{6-[(R)-(3S,3aR,7aR)-1-(Hexahydro-furo[3,2-b]pyran-3-yl)-1H-pyrazol-4-yl]-2,3-dimethyl-2H-indazol-4-yloxy}-ethyl)-pyrrolidin-2-one] | 9 | 10312 | 34 | – |
| Cc1c2c(O[C@H](C)[C@H]3CNC(=O)C3)cc(-c3cnn(C(C)(C)C)c3)cc2nn1C [Example 13, (R)-4-{(R)-1-[6-(1-tert-Butyl-1H-pyrazol-4-yl)-2,3-dimethyl-2H-indazol-4-yloxy]-ethyl}-pyrrolidin-2-one] | 3 | 39982 | 36 | – |
| Cc1c2c(O[C@H](C)[C@H]3CNC(=O)C3)cc(-c3cnn(C4CCC(F)(F)C4)c3)cc2nn1C (stereo partly drawn) [Example 22, (R)-4-((R)-1-{6-[1-(3,3-Difluoro-cyclopentyl)-1H-pyrazol-4-yl]-2,3-dimethyl-2H-indazol-4-yloxy}-ethyl)-pyrrolidin-2-one] | 3 | 11207 | 13.4 | – |
| C[C@@H](Oc1cc(-c2cnn(C3CC(C)(C)OC3(C)C)c2)cc2nn(C)c(F)c12)[C@H]1CNC(=O)C1 (stereo partly drawn) [Example 14, (R)-4-((R)-1-{3-Fluoro-2-methyl-6-[1-(2,2,5,5-tetramethyl-tetrahydro-furan-3-yl)-1H-pyrazol-4-yl]-2H-indazol-4-yloxy}-ethyl)-pyrrolidin-2-one] | 12 | 15625 | 50 | – |
| Cc1cnn2cc(-c3cnn(C(C)(C)C)c3)cc(O[C@H](C)[C@H]3CNC(=O)C3)c12 [example 6.09 on page 559 of WO15017610, reference compound] | 17 | 370 | 0.037 | 0.037 |
| Cc1c2c(O[C@H](C)[C@H]3CNC(=O)C3)cc(-c3cnn(C4CC(C)(C)OC4(C)C)c3)cc2nn1C (stereo partly drawn) [Example 16, (R)-4-((R)-1-{2,3-Dimethyl-6-[1-(2,2,5,5-tetramethyl-tetrahydro-furan-3-yl)-1H-pyrazol-4-yl]2H-indazol-4-yloxy}-ethyl)-pyrrolidin-2-one] | 6 | 14323 | 44.4 | – |
| Cc1c2c(O[C@H](C)[C@H]3CNC(=O)C3)cc(-c3cnn(C(C)C)c3)cc2nn1C [Example 18, (R)-4-{(R)-1-[6-(1-Isopropyl-1H-pyrazol-4-yl)-2,3-dimethyl-2H-indazol-4-yloxy]-ethyl}-pyrrolidin-2-one] | <4 | 18323 | 20.2 | – |
| Cc1cnn2cc(-c3cnn(C(C)(C)C)c3)nc(O[C@H](C)[C@H]3CNC(=O)C3)c12 [example 5.20 on page 506 of WO15017610, reference compound] | 31 | 810 | 0.162 | 0.162 |
| C[C@@H](Oc1nc(-c2cnn(C(C)(C)C)c2)cc2ncn(C)c12)[C@H]1CNC(=O)C1 [example 3A.02, on page 196 of WO15017610, reference compound] | 7 | 891 | 1.69 | 1.69 |
| Cc1c2c(O[C@H](C)[C@H]3CNC(=O)C3)cc(-c3cnn([C@@H]4CCOC(C)(C)C4)c3)cc2nn1C [Example 9, (R)-4-((R)-1-{6-[1-((R)-2,2-Dimethyl-tetrahydro-pyran-4-yl)-1H-pyrazol-4-yl]-2,3-dimethyl-2H-indazol-4-yloxy}-ethyl)-pyrrolidin-2-one] | 6 | 21219 | 23.3 | – |
| Cc1c2c(O[C@H](C)[C@H]3CNC(=O)C3)cc(-c3cnn(CC4CC4)c3)cc2nn1C [Example 8, (R)-4-{(R)-1-[6-(1-Cyclopropylmethyl-1H-pyrazol-4-yl)-2,3-dimethyl-2H-indazol-4-yloxy]-ethyl}-pyrrolidin-2-one] | 5 | 15080 | 21.1 | – |
| Cc1cc2c(O[C@H](C)[C@H]3CNC(=O)C3)cc(-c3cnn(C(C)(C)C)c3)cn2n1 [example 6.60 on page 587 of WO15017610, reference compound] | <4 | >4850 | > 50 | > 50 |
| C[C@@H](Oc1cc(-c2cnn(C(C)(C)C)c2)cc2ncn(C)c12)[C@H]1CNC(=O)C1 [example 3B.22 on page 219 of WO15017610, reference compound] | 5 | 964 | 0.771 | 0.771 |
| Cc1c2c(O[C@H](C)[C@H]3CNC(=O)C3)nc(-c3c[nH]nc3C(C)(C)C)cc2nn1C [Example 4, (R)-4-{(R)-1-[6-(3-tert-Butyl-1H-pyrazol-4-yl)-2,3-dimeth-yl-2H-pyrazolo[4,3-c]pyridin-4-yloxy]-ethyl}-pyrrolidin-2-one] | 10 | 29636 | 65.2 | – |
